# Patent US20080261933A1, “COMBINATION OF PROGESTERONE-RECEPTOR ANTAGONIST TOGETHER WITH A LUTEIN-HORMONE-RELEASING HORMONE AGONIST AND ANTAGONIST FOR USE IN BRCA MEDIATED DISEASES” (priority 2007, published 2008)
# Experiments:
# [1] = tested on: mammary tumors in Brca1/p53-deficient mice; conditions: mice with BRCA1- or BRCA2 inactivated in mammary glands; cited from earlier work
# glucocorticoid = conditions: causes severe side effects; cited from earlier work
# [2] = oral; cited from earlier work
# tumor cells = assay: Apoptosis of tumor cells
# From the text: Such other hormone-dependent diseases may include ovarian cancer, endometrial cancer, myeloma, myoma, lung cancer, meningioma, i.e., diseases which substantially originate or are influenced by the presence of hormone receptors and/or hormone-dependent pathways.
# progesterone receptor [3] = biological target: T1, progesterone receptor (Homo sapiens, UniProt P06401); assay: Endocrinological profile of the progesterone-receptor antagonist
# T1 sequence (P06401 1-933): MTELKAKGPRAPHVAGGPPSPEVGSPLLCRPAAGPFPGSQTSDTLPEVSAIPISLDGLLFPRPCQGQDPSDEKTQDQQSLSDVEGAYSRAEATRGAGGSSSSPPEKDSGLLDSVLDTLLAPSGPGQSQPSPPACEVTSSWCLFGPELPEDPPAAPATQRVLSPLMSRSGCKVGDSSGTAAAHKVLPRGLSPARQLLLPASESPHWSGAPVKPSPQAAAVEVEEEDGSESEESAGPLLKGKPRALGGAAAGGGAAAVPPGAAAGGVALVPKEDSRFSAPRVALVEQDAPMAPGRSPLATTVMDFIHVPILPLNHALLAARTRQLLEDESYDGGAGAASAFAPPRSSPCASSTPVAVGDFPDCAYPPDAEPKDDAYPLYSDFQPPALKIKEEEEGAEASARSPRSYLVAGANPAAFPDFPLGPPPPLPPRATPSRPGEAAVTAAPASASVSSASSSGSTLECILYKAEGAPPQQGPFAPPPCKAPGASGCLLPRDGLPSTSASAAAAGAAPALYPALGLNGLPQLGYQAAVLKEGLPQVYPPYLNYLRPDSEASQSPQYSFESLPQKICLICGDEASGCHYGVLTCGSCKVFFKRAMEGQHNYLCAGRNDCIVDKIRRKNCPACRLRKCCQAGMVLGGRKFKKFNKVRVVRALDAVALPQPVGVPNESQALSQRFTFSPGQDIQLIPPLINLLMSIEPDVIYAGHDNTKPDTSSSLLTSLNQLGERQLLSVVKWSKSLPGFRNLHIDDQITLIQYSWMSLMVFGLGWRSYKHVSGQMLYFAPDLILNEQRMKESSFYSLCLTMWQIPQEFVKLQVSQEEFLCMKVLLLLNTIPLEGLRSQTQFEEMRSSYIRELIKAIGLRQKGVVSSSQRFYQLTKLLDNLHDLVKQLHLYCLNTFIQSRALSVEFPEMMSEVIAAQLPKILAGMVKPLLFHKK
# From the text: has high antiprogestagenic activity with little or no other endocrinological effects (Fuhrmann, U. et al., J. Med. Chem. 2000, 43, 5010-5016).
# progesterone receptor [4] = biological target: T1, progesterone receptor; conditions: Fuhrmann et al., J. Med. Chem. 2000; cited from earlier work
SMILES,development of mammary tumors [1],anti-glucocorticoid activity (glucocorticoid),bioavailability when administered orally [2],apoptosis of tumor cells (tumor cells),"endocrine side effects such as androgen, estrogen or antiglucocorticoid activity (progesterone receptor [3])",antiprogestagenic activity (progesterone receptor [4]),other endocrinological effects (progesterone receptor [4])
CC#C[C@]1(O)CC[C@H]2[C@@H]3CCC4=CC(=O)CCC4=C3[C@@H](c3ccc(N(C)C)cc3)C[C@@]21C [mifepristone],blocks the development of mammary tumors,strong,poor,,,,
"CC(=O)c1ccc([C@H]2C[C@@]3(C)[C@@H](CC[C@@]3(O)C(F)(F)C(F)(F)F)[C@@H]3CCC4=CC(=O)CCC4=C32)cc1 [ZK230211, 11β-(4-acetylphenyl)-17β-hydroxy-17α-(1,1,2,2,2-pentafluoroethyl)-estra-4,9-dien-3-one]",,,,increased apoptosis,only very weak or no,high,little or no
